Patent US10039825B2, “Combination therapy with CD4 lymphocyte depletion and MTOR inhibitors” (Cedars-Sinai Medical Center, priority 2010, dated 2018)

Key:
CD4+FoxP3+ lymphocytes = test: in vivo effect on CD4+FoxP3+ lymphocytes (flow cytometry); design: species or system B6 mice; conditions: treated daily for 24 days; FoxP3 staining gated on CD4; FIG. 1B
Experimental: Further, in vivo effect of temsirolimus on CD4+FoxP3+ lymphocytes was assessed. B6 mice (5 mice per group) were treated daily with temsirolimus for 24 days, 2 doses of vaccine (complex of hsp110 and gp100), or both. FoxP3 staining was quantified with flow cytometry while gating on CD4. […] Representative results are shown from at least 2 independent experiments.

RENCA tumor cells = test: RENCA tumor re-challenge after treatment (antitumor immune memory); type: in vivo, Balb/c mice; conditions: re-challenged with 2×10^5 RENCA cells on day 47; tumor size 11 and 18 days after; FIG. 4
Experimental: Ten days after subcutaneous implantation of 2×10^5 tumor cells, Balb/c mice were treated with temsirolimus (30 ug/mouse daily on days 14 to 34, intraperitoneally) or temsirolimus plus CD4 depleting antibody (intraperitoneal injection of 200 μg of GK1.5 mAb, administered at day 6 and 10). Mice were re-challenged with 2×10^5 RENCA tumor cells on day 47. Naïve mouse group was also challenged with RENCA and served as a control. Tumor size was measured 11 and 18 days after the re-challenge. […] Since the mice were not being actively treated at the time of tumor re-challenge, direct antitumor effects of the therapy cannot account for the effects on tumor growth.

[1] = tested on: C57 BL/6 or Pmel-1 mouse lymph node lymphocytes; test: [3H] thymidine incorporation assay of stimulated lymph node lymphocytes; type: cell-based; conditions: lymphocytes stimulated with anti-CD3 and anti-CD28 mAb or gp100 peptide, 72 hours; FIG. 1A
Experimental: As has been well established, mTOR inhibitors have immune suppressing activity. For the [3H] thymidine incorporation assay, lymph nodes were harvested from naïve C57 BL/6 or Pmel-1 mouse, 3×10^5 cells/well were cultured in 96-well plates and stimulated, with or without mTOR inhibitors, for 72 hours. C57 BL/6 lymphocytes were stimulated with anti-CD3 and anti-CD28 mAb, and Pmel-1 lymphocytes were stimulated with […]. DNA synthesis was determined by incubation for 16 h with 1 μCi [3H]thymidine (Amersham Biosciences, Piscataway, N.J., USA).

## CO[C@H]1C[C@@H]2CC[C@@H](C)[C@@](O)(O2)C(=O)C(=O)N2CCCC[C@H]2C(=O)O[C@H]([C@H](C)C[C@@H]2CC[C@@H](OC(=O)C(C)(CO)CO)[C@H](OC)C2)CC(=O)[C@H](C)/C=C(\C)[C@@H](O)[C@@H](OC)C(=O)[C@H](C)C[C@H](C)/C=C/C=C/C=C/1C [temsirolimus, Temsirolimus]
CD4+FoxP3+ lymphocytes
  Foxp3 positive lymphocytes (regulatory T cells): increased
RENCA tumor cells
  tumor growth after re-challenge: grew at the same rate
[1]
  immune suppressing activity, DNA synthesis by [3H]thymidine incorporation: nearly identical activities
